Measurements as given in patent US8338428B2, “Methods for administering aripiprazole” (Alkermes, Inc., priority 2003, dated 2012).
Entries after “also recorded” stand apart in the source; their conditions may differ.

Assay: Pharmacokinetic evaluation of aripiprazole in rats following single subcutaneous doses of aripiprazole formulations
Type: in vivo, Sprague-Dawley rats
Settings: rat, single SC injection of 10, 20 or 30 mg bulk drug in 0.75 mL diluent (3% CMC, 0.1% Tween 20, 0.9% NaCl); plasma 2 h to 28 d; versus microspheres with 30% or 50% load
Protocol: Experimental: Pharmacokinetic Evaluation of Aripiprazole in Rats Following Administration of Single Subcutaneous Doses of Aripiprazole Formulations. Species and Strain: Sprague-Dawley rats. Male; 450 +/−50 grams. Study Groups: 5 Groups, 15 subjects • Group A: three rats injected once SC with 10 mg of Aripiprazole. • Group B: three rats injected once SC with 20 mg of Aripiprazole. • Group C: three rats injected once SC with 30 mg of Aripiprazole. • Group D: three rats injected once SC with ˜67 mg of microparticles. • Group E: three rats injected once SC with ˜40 mg of microparticles. […] Route of Injection: Subcutaneous (SC) injection into the interscapular region. Injection Vehicle: Aqueous diluent containing 3% CMC (low viscosity), 0.1% Tween 20, in 0.9% NaCl and water. Dose Volumes: Suspensions were formulated as follows: • Group A: 10 mg powder in 0.75 mL Diluent • Group B: 20 mg powder in 0.75 mL Diluent • Group C: 30 mg powder in 0.75 mL Diluent • Group D: ˜67 mg microparticles in 0.75 mL Diluent • Group E: 40 mg microparticles in 0.75 mL Diluent Blood Collection: Blood samples were collected via a lateral tail vein after anesthesia with Halothane. A syringe without an anticoagulant was used for the blood collection, then the whole blood was transferred to tubes containing K2 EDTA and mixing beads (MICROTAINER®; MFG# BD365974). […]

For `O=C1CCc2ccc(OCCCCN3CCN(c4cccc(Cl)c4Cl)CC3)cc2N1` [aripiprazole, Aripiprazole], the “plasma release profile of SC bolus injection compared with aripiprazole-containing PLGA microspheres” value was “substantially the same; also recorded: extended release profile similar to that obtained by the injection of a poly lactide-co-glycolide microsphere formulation”.
